Where two headings read alike, the source gives them in different places.

The experiment has as its system PE:PG mix nanodiscs. Nature of the experiment: Phospholipid nanodisc 1H NMR CPMG coordination assay, PE:PG mix nanodiscs. Type of experiment: binding. To be noted: SSA 100 µM. The source says:
Finally, to establish how any single SSA structural variation affects the coordination of an individual salt component to the surface of a phospholipid membrane, the binding of the anionic and cationic components of SSAs 5–12 with nanodiscs comprised of PC, PG or the PE : PG mix (Table 2) was studied. Nanodiscs were synthesised from synthetic vesicles of the relevant phospholipid composition. For full synthetic procedures and nanodisc characterisation please see ESI (Section 13). ^†[34,35]
Styrene-maleic acid (SMA) nanodiscs are small biomimetic scaffolds with a hydrodynamic diameter ≈ 10 nm. They consist of a single disc-shaped planar phospholipid bilayer, ‘belted’ in this instance with a synthetic SMA co-polymer. Here nanodiscs of a specific phospholipid composition were titrated against a solution of SSAs 5–12 (0.10 mM) in a sodium phosphate buffer (20 mM) with NaCl (20 mM) at pH 7.4. This solution was supplemented with 5% D2O, to enable NMR locking and 4,4-dimethyl4-silapentane-1-sulfonic acid (DSS – 0.02 mM) to act as an internal standard. The nanodiscs were then titrated against the SSA, while the SSA concentration was maintained as constant, well below the CMC (Table 3).[38] A 1D ^1H NMR with a Carr–Purcell–Meiboom–Gill sequence (CPMG) filter (300 ms),[36,48] modified with a watergate element was then obtained for each experimental data point. The watergate element was used to allow suppression of the water signal, whereas the CPMG filter enabled the suppression of those resonances from molecular species with long correlation times, which in this instance correlate to the signals of those SSAs coordinated to the nanodisc, rather than those which exist as free species in solution. Comparative integration of the resonances corresponding to the SSA cation or anion, standardised against the DSS internal standard, permits the percentage of the individual SSA components coordinated to the phospholipid nanodisc to be established with respect to increasing nanodisc concentration.
However, when considering the 1/EC50 for the SSA cationic component (Fig. 10b), the reverse is true. This is perhaps expected, but nevertheless despite the identical experimental conditions, including the same TBA counter cation across SSAs 5–12, there is a marked difference in the 1/EC50 obtained, where the only difference is the SSA anion present. This is most noticeable for the series of SSA titrations involving the PE : PG mix (Table 2) nanodiscs. The only variation within this set of titrations is the structure of the SSA anion; we therefore conclude that the SSA anion is influencing SSA cation nanodisc coordination events. This observation provides evidence for the presence of further complex interactions informing SSA:nanodisc coordination processes. […]
Data were acquired in endpoint mode. All experiments were repeated in triplicate […]
Nanodisc preparation: Lipid films were resuspended in Buffer (20 mM NaCl, 20 mM NaH 2PO4, pH 7.4) and sonicated for 1 hour, at a 5:1 ratio, SMA was added and incubated at 37 °C for 1 hour. Dialysed overnight in 5 L of the same buffer in 10 KDa cut-off dialysis tubing, concentrated, and underwent gel filtration size exclusion chromatography on a Superdex 200 10/300 GL column (GE Healthcare) in the same buffer, whilst monitoring absorbance at 260 nm. Nanodisc quantification carried out via monitoring of absorbance at 260 nm using a calibration curve.2
1H NMR CPMG: 1H NMR CPMG3,4 spectra were obtained with a Bruker Avance III […] spectrometer equipped with a TCIP cryoprobe at 298 K. Samples were supplemented with 5 % D 2O and 0.02 mM 4,4-dimethyl4-silapentane-1-sulfonic acid (DSS). The standard zgprcpmg pulse sequence from the Bruker library was modified with a watergate element to allow suppressi on of the water signal and was used for all experiments. Although this sequence is readily obtainable, we are happy to provide it on request. The P1 pulses were 9 µs at a power of 7.9 W. Presaturation was applied between […]

The mark [1] stands for this setting: concentration of nanodisc coordinating 50 % of the SSA cation, Hill Plot fit, Vmax fixed 100 %, read-out: EC50 PE:PG mix, cationic SSA component.
Setting [2] is: concentration of nanodisc coordinating 50 % of the SSA anion, Hill Plot fit, Vmax fixed 100 %, read-out: EC50 PE:PG mix, anionic SSA component.

What is called EC50 is the concentration needed to bring the measured effect to its halfway point. For the molecule `Cc1ccc2nc(NC(=O)NCS(=O)(=O)O)sc2c1` [SSA 7], the EC50 under setting [1] was determined as 3440 nM. With `Cc1ccc2nc(-c3ccc(NC(=O)NCCC(=O)O)cc3)sc2c1` [SSA 9], the EC50 under setting [2] is 730 nM.

As for `O=C(NCS(=O)(=O)O)Nc1ccccc1-c1nc2ccccc2s1` [SSA 5], the EC50 is, setting by setting: under setting [2], 1140 nM; under setting [1], 930 nM. Turning to `O=C(NCS(=O)(=O)O)Nc1ccc(-c2nc3ccccc3s2)cc1` [SSA 8], under setting [2], the EC50 was determined as 2200 nM.

In the case of `Cc1ccc2nc(-c3ccc(NC(=O)NCS(=O)(=O)O)cc3)sc2c1` [SSA 6], the EC50 by setting is: (experimental endpoint 4.00 µM nanodisc, read-out: EC50 PE:PG mix, cationic SSA component) greater than 4000 nM; under setting [2], 460 nM. As for `Cc1ccc2nc(-c3ccc(NC(=O)NCC(=O)O)cc3)sc2c1` [SSA 11], the EC50 by setting is: under setting [2], 720 nM; under setting [1], 2510 nM. The matching figures for `Cc1ccc2nc(-c3ccc(NC(=S)NCS(=O)(=O)O)cc3)sc2c1` [SSA 12]: 260 nM and 370 nM. Taken in the same sequence, the figures for `Cc1ccc2nc(-c3ccc(NC(=O)NCCCS(=O)(=O)O)cc3)sc2c1` [SSA 10] were 500 nM and 2920 nM.
